Assay results: patent US20150071967A1, “Tolerisation-Inducing Composition” (University of Bristol, priority 2012, published 2015)

Assays:
[1] = tested on: Th1 cells; assay: IL-10 protein in Th1-polarised CD4+ cells restimulated with GSK-3 inhibitors (ICCS, bead immunoassay); format: cell-based, mouse; conditions: for IL-10 protein: Th1 CD4+ cells restimulated with APCs and peptide or with anti-CD3/anti-CD28 coated beads; for Intracellular IL-10 levels: Th1 cells restimulated with anti CD3/anti CD28 Dynabeads, 2 μM CHIR99021 or 3 μM SB216763, ICCS day 7
Protocol: A. Splenocytes from a naive Tg4 mouse were cultured in the presence of peptide MBP Ac1-9 (10 μg/ml) and IL-12 with IL-2 added on day 3 of culture to polarise CD4+ cells towards a Th1 phenotype. On day 7 of culture, Th1 cells were restimulated with fresh irradiated APCs from a B10_PL mouse in the presence of DMSO (1:1000; Control), CHIR99021 (2 μM), SB216763 (5 μM) or SB627772 (10 μM) as well as peptide MBP Ac1-9 (10 μg/ml). IL-2 was added on day 3 of culture and intracellular cytokine staining for IFNγ and IL-10 carried out on day 7 of restimulation after PMA and lonomycin stimulation. Data are plots gated on live CD4^+ cells and are representative of 5 independent experiments.
C. Splenocytes from a naive Tg4 mouse were cultured in the presence of peptide MBP Ac1-9 (10 μg/ml) and IL-12 with IL-2 added on day 3 of culture to polarise CD4+ cells towards a Th1 phenotype. On day 7 of culture, Th1 CD4+ cells were isolated and restimulated with anti-CD3/anti-CD28 coated beads in the presence of IL-2 and DMSO (1:1000; Control), CHIR99021 (2 μM), SB216763 (5 μM) or SB627772 (10 μM). Intracellular cytokine staining for IFNγ and IL-10 was carried out on day 7 of restimulation after PMA and lonomycin stimulation. Data are plots gated on live CD4^+ cells and are representative of 4 independent experiments.
E. Tissue culture supernatants were taken on day 3 of restimulation and analysed for IL-10 by fluorescent bead immunoassay. Data are mean+/−SEM and are representative of 3 independent experiments.
Splenocytes from a naive Tg4 mouse were cultured in the presence of peptide MBP Ac1-9 (10 μg/ml) and IL12 with IL2 added on day 3 to polarise cells to a Th1 phenotype. On day 7, cells were restimulated with anti CD3/anti CD28 Dynabeads and 2 μM CHIR99021, 3 μM SB216763 or 0.02% DMSO (vehicle control). Cells were analysed by ICCS on Day 7 after stimulation. Intracellular IL-10 levels were increased following treatment with either GSK-3 inhibitor (CHIR99021 or SB216763).
(§1) In a separate experiment, CD4+ cells from Tg4 mice which express TCR specific for the peptide Ac[1-9] of MBP were polarised to a Th1 phenotype and then cultured in the presence of GSK3 inhibitors. Three structurally distinct inhibitors, CHIR99021, SB216763 and SB627772 were used to minimise effects of off-target inhibition.

[2] = tested on: naive CD4+ T cells; assay: IL-10 in naive CD4+ T cells cultured with GSK-3 inhibitors (ICCS, bead immunoassay); format: cell-based, mouse; conditions: for IL-10 production: naive CD4+CD62L+ T-cells from Tg4 spleens, cultured in the presence of GSK3 inhibitors; for Intracellular IL-10 levels: naive Tg4 CD4+ cells, anti CD3/anti CD28 Dynabeads, 2 μM CHIR99021 or 3 μM SB216763, ICCS day 7
Protocol: A. CD4^+/CD62L^+ T cells were isolated from Tg4 splenocytes and cultured with anti-CD3/anti-CD28 coated beads in the presence of IL-2 and DMSO (1:1000; Control), CHIR99021 (2 μM), SB216763 (5 μM) or SB627772 (10 μM). Intracellular cytokine staining for […] and IL-10 was carried out on day 7 of restimulation after PMA and lonomycin stimulation. Data are plots gated on live CD4^+ cells and are representative of 3 independent experiments.
B. Tissue culture supernatants were taken on day 3 of restimulation and analysed for IL-10 by fluorescent bead immunoassay. Data are mean+/−SEM of 3 independent experiments.
CD4+ cells purified from a naive Tg4 spleen were cultured in the presence of 2 μM CHIR99021, 3 μM SB216763 or 0.02% DMSO (vehicle control) with anti CD3/anti CD28 Dynabeads. Cells were analysed by ICCS on Day 7 after stimulation.
as §1

[3] = tested on: APC / Th1 CD4+ cells; assay: IL-10 with APCs from WT or IL-10 knockout mice (ICCS, ELISA); format: cell-based, mouse; conditions: 2 μM CHIR99021, APCs from WT or IL10 knockout mice, ICCS and day 3 ELISA
Protocol: A. Splenocytes from a naive Tg4 mouse were cultured in the presence of peptide MBP Ac1-9 (10 μg/ml) and IL-12 with IL-2 added on day 3 of culture to polarise CD4+ cells towards a Th1 phenotype. On day 7 of culture, Th1 cells were restimulated with fresh irradiated APCs from either a B10_PL or B10_PL IL10^−/− mouse in the presence of DMSO (1:1000; Control) or CHIR99021 (2 μM). IL-2 was added on day 3 of culture and intracellular cytokine staining for […] and IL-10 carried out on day 7 of restimulation after PMA and lonomycin stimulation. Data are plots gated on live CD4^+ cells and are representative of 3 independent experiments. B. Tissue culture supernatants were taken on day 3 of restimulation and analysed for IL-10 by ELISA. Data are mean+/−SEM and are representative of 3 independent experiments. Splenocytes from a naive Tg4 mouse were cultured in the presence of either: (a) peptide MBP Ac1-9 (10 μg/ml) and IL12 with IL2 added on day 3 to polarise cells to a Th1 phenotype; or (b) IL4 and anti IFNγ with IL2 added on day 3 to polarise cells to a Th2 phenotype. On day 7 CD4+ cells were restimulated with fresh irradiated APCs from either WT or IL10 knockout mice, 2 μM CHIR99021 or 0.02% DMSO (vehicle control) and peptide […] of MBP (10 μg/ml). Supernatants were taken in triplicate on day 3 and analysed for IL-10 by ELISA (FIG. 3 (E)). […]

[4] = tested on: β-catenin; assay: beta-catenin Western blot in Th1 CD4+ cells; format: cell-based, mouse; conditions: for β-catenin accumulation (Western blot): CD4+ cells, 2 μM CHIR99021, 5 μM SB216763, 10 μM SB627772; for β-catenin levels (Western blot): Th1 cells restimulated with APCs and peptide, indicated concentrations, day 7
Protocol: G. Splenocytes from a naive Tg4 mouse were cultured in the presence of peptide MBP Ac1-9 (10 μg/ml) and IL-12 with IL-2 added on day 3 to polarise cells to a Th1 phenotype. On day 7 cells were restimulated with fresh irradiated APCs from a B10_PL mouse, peptide Ac1-9 of MBP (10 μg/ml) and the indicated concentrations of CHIR99021, SB216763 or SB627772. On day 7 of restimulation, CD4^+ cells were lysed in RIPA buffer, subjected to Western blotting and probed with beta catenin antibody. The membrane was stripped and reprobed for GAPDH as a loading control.
Splenocytes from a naive Tg4 mouse were cultured in the presence of peptide MBP Ac1-9 (10 μg/ml) and IL12 with IL2 added on day 3 to polarise cells to a Th1 phenotype. On day 7 cells were restimulated with fresh irradiated APCs, peptide Ac1-9 of MBP (10 μg/ml) and the indicated concentrations of SB216763 or CHIR99021. On day 7 of restimulation, cells were lysed in RIPA buffer, subjected to Western blotting and probed with beta catenin antibody. The membrane was stripped and reprobed for GAPDH as a loading control. GSK-3 consititutively phosphorylates the β-catenin protein, leading to its degradation.

[5] = tested on: Th1 cells; assay: IL-10 mRNA by qPCR in Th1 CD4+ cells; format: cell-based, mouse; conditions: IL-10 relative to HPRT1
Protocol: F. Splenocytes from a naive Tg4 mouse were cultured in the presence of peptide MBP Ac1-9 (10 μg/ml) and IL-12 with IL-2 added on day 3 of culture to polarise CD4+ cells towards a Th1 phenotype. On day 7 of culture, Th1 cells were restimulated with fresh irradiated APCs from a B10_PL mouse in the presence of DMSO (1:1000; Control), CHIR99021 (2 μM), SB216763 (5 μM) or SB627772 (10 µM) as well as peptide MBP Ac1-9 (10 μg/ml). IL-2 was added on day 3 of culture. On day 7 of restimulation live CD4^+ cells were selected and stimulated with anti CD3/CD28 antibodies for 16 hrs. RNA was extracted and IL-10 mRNA quantified by qPCR. IL-10 quantities are shown relative to HPRT1 control.
as §1

[6] = tested on: β-catenin; conditions: cited from earlier work

Row | Compound | IL-10 protein [1] | Intracellular IL-10 levels [1] | IL-10 production [2] | Intracellular IL-10 levels [2] | IL-10 in / produced by the APC [3] | β-catenin accumulation (Western blot) [4] | β-catenin levels (Western blot) [4] | IL-10 mRNA (qPCR) [5] | Level of β-catenin [6]
1 | Cc1c[nH]c(-c2cnc(NCCNc3ccc(C#N)cn3)nc2-c2ccc(Cl)cc2Cl)n1 [CHIR99021] | significantly increased | increased | did not show any change | not significantly affected | Neither the intracellular level of IL-10 in the APC nor the production of IL-10 by the APC was enhanced | no accumulation of β-catenin | degradation of β-catenin appears to be inhibited, leading to build up of the β-catenin protein | upregulation | 
2 | Cn1cc(C2=C(c3ccc(Cl)cc3Cl)C(=O)NC2=O)c2ccccc21 [SB216763] | significantly increased | increased | did not show any change | not significantly affected |  | no accumulation of β-catenin | does not appear to cause a significant effect on β-catenin levels | upregulation | 
3 | O=C1NC(=O)C(c2ccccc2[N+](=O)[O-])=C1Nc1ccc(O)c(Cl)c1 [SB415286] |  |  |  |  |  |  |  |  | elevate the level of 13-catenin
